The source of these data is patent publication US6265611A, “Hydroxymandelic acid amides of phenolic amines” (Haarmann & Reimer GmbH, priority 1999, dated 2001).

A short description of data set [1]: DPPH test, activity as free-radical scavenger. The format is biochemical. As to conditions: EC = c(test compound)/c(DPPH); DPPH 100 μmol/l in methanol; absorption at 515 nm. How it is done: The activity of the compounds according to Examples 1 to 7 as free-radical scavengers was compared with the conventional free-radical scavenger. For this purpose, the DPPH (1,1-diphenyl-2-picryl-hydrazyl) test for the removal of […] was used.
DPPH was dissolved in methanol to a concentration of 100 μmol/l. A series of dilutions of the illustrative compound, vitamin C, α tocopherol, butylated hydroxytoluene and ferulic acid in methanol were prepared. Methanol was used as the control. 2500 μl of the DPPH solution were mixed with 500 μl of each test solution and the decrease in absorption at 515 nm was read until the decrease was less than 2% per hour. The activity of the test substances as free-radical scavengers was calculated using the following equation:
Activity as free-radical scavenger (%)=100-(absorption of the test
compounds)/ (absorption of the control)×100.
For orientation: Loss of DPPH colour is used to gauge radical scavenging.

The nature of data set [2]: Activity as antioxidants: accelerated autoxidation of lipids by air (Rancimat). As to conditions: AOI = IP(with test solution)/IP(control sample); 0.05% test substance; soybean oil, 100° C., air 20 l/h. As to the method: The activity of the illustrative compounds 1 to 7 as antioxidants was compared with that of traditional antioxidants. The test system used was the accelerated autoxidation of lipids by air with or without antioxidant using the Rancimat apparatus (Rancimat is a registered trade mark of Metrohm AG, Herisau, Switzerland). The illustrative compounds, vitamin C, α-tocopherol, ferulic acid and butylated hydroxytoluene were dissolved in methanol or acetone, and 100 μl of each test solution were added to a 3 g prepared oil sample (soybean oil, purified over alumina type N). In a control sample, only solvent was added. A constant, dry stream of air (20 l/h) was blown through the oil sample, which contained the test solution and was heated to 100° C., and the volatile oxidation product (predominantly short-chain fatty acids such as formic or acetic acid) were collected in a trap containing water. The conductivity of this aqueous solution was continuously measured and recorded. […] The time to the increase is referred to as the induction period (IP). The following equation was used to calculate the antioxidative index (AOI): AOI=IP(with test solution) /IP(control sample)

Data set [3] in a line: Solubility in aqueous media (water/DMSO 95:5). Type of data set: physicochemical. How it is done:
The aqueous medium used by way, of example, was a mixture of 95 parts by weight of water and 5 parts by weight of DMSO. The compounds to be tested were weighed into a glass vessel, admixed with a defined amount of solvent and treated with ultrasound at room temperature for 5 min.

For the compound `COc1cc(C(O)C(=O)NCCc2ccc(O)c(O)c2)ccc1O` (centres unmarked) [Example 1, N-(3,4-dihydroxyphenethyl)-2-hydroxy-2-(4-hydroxy-3 methoxyphenyl)acetamide], the “EC50 (effective relative concentration at which 50% of the free radical DPPH had been removed)” value in data set [1] stood at 0.131 mol/mol. Further, in data set [2], the “antioxidative index (AOI) with 0.05% of test substance” value came out at 13.0. Also, the “Solubility in a mixture of water (95 parts by weight) and DMSO (5 parts by weight)” value (“Solubility in a mixture of water” below) in data set [3] was 5-10 % by weight.
For the compound `O=C(NCc1ccc(O)c(O)c1)C(O)c1ccc(O)c(O)c1` (centres unmarked) [Example 6, N-(3,4-dihydroxybenzyl)-2-(3,4-dihydroxyphenyl)-2-hydroxyacetamide], in data set [1], the “EC50 (effective relative concentration at which 50% of the free radical DPPH had been removed)” value came out at 0.069 mol/mol. In addition, the “antioxidative index (AOI) with 0.05% of test substance” value in data set [2] worked out at 17.5. For the same compound, the “Solubility in a mixture of water” value in data set [3] is 0.1-0.5 % by weight.
For `O=C(NCCc1ccc(O)c(O)c1)C(O)c1ccc(O)c(O)c1` (centres unmarked) [Example 2, N-(3,4-dihydroxyphenethyl)-2-(3,4-dihydroxyphenyl)-2-hydroxyacetamide], in data set [1], the “EC50 (effective relative concentration at which 50% of the free radical DPPH had been removed)” value amounted to 0.104 mol/mol. The “antioxidative index (AOI) with 0.05% of test substance” value in data set [2] stood at 16.9. In addition, the “Solubility in a mixture of water” value in data set [3] was over 10 % by weight.
In the case of `Cc1cc(C(C)(C)C)c(O)c(C(C)(C)C)c1` [Butylated hydroxytoluene, reference compound], in data set [1], the “EC50 (effective relative concentration at which 50% of the free radical DPPH had been removed)” value is recorded as 0.240 mol/mol. For the same compound, the “antioxidative index (AOI) with 0.05% of test substance” value in data set [2] turned out to be 4.77.
Take `COc1cc(CNC(=O)C(O)c2ccc(O)c(O)c2)ccc1O` (centres unmarked) [Example 5, 2-(3,4-Dihydroxyphenyl)-2-hydroxy-N-(4-hydroxy-3 methoxybenzyl)acetamide]: the “EC50 (effective relative concentration at which 50% of the free radical DPPH had been removed)” value in data set [1] is reported as 0.199 mol/mol. Besides, the “antioxidative index (AOI) with 0.05% of test substance” value in data set [2] came out at 12.6. Also, the “Solubility in a mixture of water” value in data set [3] is 0.05-0.1 % by weight.
In the case of `COc1cc(C(O)C(=O)NCc2ccc(O)c(O)c2)ccc1O` (centres unmarked) [Example 3, N-(3,4-dihydroxybenzyl)-2-hydroxy-2-(4-hydroxy-3methoxyphenyl)acetamide], the “EC50 (effective relative concentration at which 50% of the free radical DPPH had been removed)” value in data set [1] amounted to 0.195 mol/mol. Besides, the “antioxidative index (AOI) with 0.05% of test substance” value in data set [2] turned out to be 9.8. In data set [3], the “Solubility in a mixture of water” value is over 10 % by weight.
In the case of `O=C(NCc1cc(O)c(O)c(O)c1)C(O)c1ccc(O)c(O)c1` (centres unmarked) [Example 7, 2-(3,4-Dihydroxyphenyl)-2-hydroxy-N-(3,4,5-trihydroxybenzyl)acetamide], the “EC50 (effective relative concentration at which 50% of the free radical DPPH had been removed)” value in data set [1] came to 0.085 mol/mol. For the same compound, the “antioxidative index (AOI) with 0.05% of test substance” value in data set [2] came out at 16.4. The “Solubility in a mixture of water” value in data set [3] is 0.5-1 % by weight.
For the compound `COc1cc(C(O)C(=O)NCc2cc(O)c(O)c(O)c2)ccc1O` (centres unmarked) [Example 4, 2-Hydroxy-2-(4-hydroxy-3-methoxyphenyl)-N-(3,4,5-trihydroxybenzyl)acetamide], the “EC50 (effective relative concentration at which 50% of the free radical DPPH had been removed)” value in data set [1] turned out to be 0.198 mol/mol. Further, the “antioxidative index (AOI) with 0.05% of test substance” value in data set [2] was determined as 11.0. The “Solubility in a mixture of water” value in data set [3] is 0.5-1 % by weight.
`O=C1O[C@H]([C@@H](O)CO)C(O)=C1O` [Vitamin C, ascorbic acid, reference compound]: the “EC50 (effective relative concentration at which 50% of the free radical DPPH had been removed)” value in data set [1] is reported as 0.270 mol/mol. Further, the “antioxidative index (AOI) with 0.05% of test substance” value in data set [2] was determined as 1.17.
Regarding `Cc1c(C)c2c(c(C)c1O)CCC(C)(CCCC(C)CCCC(C)CCCC(C)C)O2` (stereo not drawn) [α-Tocopherol, reference compound], the “EC50 (effective relative concentration at which 50% of the free radical DPPH had been removed)” value in data set [1] is reported as 0.250 mol/mol. Further, the “antioxidative index (AOI) with 0.05% of test substance” value in data set [2] came to 5.05.
For the compound `COc1cc(/C=C/C(=O)O)ccc1O` [Ferulic acid, reference compound], the “EC50 (effective relative concentration at which 50% of the free radical DPPH had been removed)” value in data set [1] came to 0.350 mol/mol. Further, the “antioxidative index (AOI) with 0.05% of test substance” value in data set [2] is 1.79.
